Measured values reported in patent US4613590A, “Amino D-manno-2-octulopyranosidonate containing compounds, pharmaceutical compositions and method of use” (Abbott Laboratories, priority 1985, dated 1986).
Read-outs that look alike come from different tables or passages of the source.

How the values were obtained:
CMP-KDO synthetase = CMP-KDO synthetase (Escherichia coli, UniProt P04951); test: Inhibition of CMP-KDO synthetase activity (colorimetric phosphate); format: biochemical, gram-negative bacteria
Description: The inhibition of CMP-KDO synthetase activity was measured in reaction mixtures buffered at pH 9.5 containing: 2 mM KDO, 5 mM magnesium cytidine triphosphate, and inorganic pyrophosphatase. The pyrophosphate generated during the course of enzyme reaction was cleaved by the pyrophosphatase to inorganic orthophosphate, the level of which was measured colorimetrically. […] Potency was assessed by determining the level of inhibitor required to inhibit the enzyme reaction by 50% under the conditions of the assay described above (I50). A potent inhibitor is defined as one having an I50 of 1 mM or less.

Escherichia Coli Juhl = test: Mouse protection assay, Escherichia Coli Juhl; format: in vivo; conditions: mice infected with lethal dose of Escherichia Coli Juhl
Description: (§1) Antibacterial activity of the compounds were tested in a mouse protection assay against Escherichia Coli Juhl, Serratia marcescens and the gram positive bacterium Staphylococcus aureus.

Serratia marcescens = test: Mouse protection assay, Serratia marcescens; format: in vivo; conditions: mice infected with lethal dose of Serratia marcescens
Description: as §1

CMP-KDO synthetase, sequence (P04951 whole entry): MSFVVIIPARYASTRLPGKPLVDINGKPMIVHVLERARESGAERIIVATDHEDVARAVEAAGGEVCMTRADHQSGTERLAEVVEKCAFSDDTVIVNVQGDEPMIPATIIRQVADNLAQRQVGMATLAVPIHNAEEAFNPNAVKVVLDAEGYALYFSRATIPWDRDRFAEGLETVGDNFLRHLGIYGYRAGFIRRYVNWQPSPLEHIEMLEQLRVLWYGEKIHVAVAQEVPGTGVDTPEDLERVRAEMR

NC[C@@H](O)[C@H]1OC(O)(C(=O)O)C[C@@H](O)[C@H]1O (stereo partly drawn) [Example 1, 8-Amino-3,8-dideoxy-D-manno-2-octulosonate]
IC50 (CMP-KDO synthetase): 310 µM
ED50 (Escherichia Coli Juhl): 25 mg/kg
ED50 (Serratia marcescens): 30 mg/kg

NC[C@@H](O)[C@H]1O[C@H](C(=O)O)C[C@@H](O)[C@H]1O [Example 2, α-C-[1,5-anhydro-7-amino-2,7-dideoxy-D-manno-heptopyranosyl]-carboxylate]
IC50 (CMP-KDO synthetase): 7 µM
ED50 (Escherichia Coli Juhl): 3.1 mg/kg
ED50 (Serratia marcescens): 6.3 mg/kg

NCC(=O)NCC(=O)NC[C@@H](O)[C@H]1O[C@H](C(=O)O)C[C@@H](O)[C@H]1O [Example 3, α-C-[1,5-anhydro-7-(glycyl-glycylamino)-2,7-dideoxy-D-manno-heptopyranosyl]-carboxylate]
IC50 (CMP-KDO synthetase): 230 µM
ED50 (Escherichia Coli Juhl): 6.3 mg/kg
ED50 (Serratia marcescens): 12.5 mg/kg

CNC[C@@H](O)[C@H]1OC(O)(C(=O)O)C[C@@H](O)[C@H]1O (stereo partly drawn) [Example 4, 8-Methylamino-3,8-dideoxy-D-manno-2-octulosonate]
IC50 (CMP-KDO synthetase): 81 µM

CN(C)C[C@@H](O)[C@H]1OC(O)(C(=O)O)C[C@@H](O)[C@H]1O (stereo partly drawn) [Example 5, 8-Dimethylamino-3,8-dideoxy-D-manno-2-octulosonate]
IC50 (CMP-KDO synthetase): 220 µM

CCNC[C@@H](O)[C@H]1OC(O)(C(=O)O)C[C@@H](O)[C@H]1O (stereo partly drawn) [Example 6, 8-Ethylamino-3,8-dideoxy-D-manno-2-octulosonate]
IC50 (CMP-KDO synthetase): 70 µM

NCC[C@@H](O)[C@H]1O[C@H](C(=O)O)C[C@@H](O)[C@H]1O [Example 7, α-C-[1,5 Anhydro-8-amino-2,7,8-trideoxy-D-mannooctopyranosyl] carboxylate]
IC50 (CMP-KDO synthetase; pH 9.5, 2 mM KDO, 5 mM magnesium cytidine triphosphate, inorganic pyrophosphatase, read-out: I50): 1.9 µM
